This note sets out measurements from patent US8785630B2, “Insecticidal triazines and pyrimidines” (Vestaron Corporation, priority 2011, dated 2014).

SMILES strings stand for the structures.

The assay relates to beet armyworm (Spodoptera exigua). In words: Insecticidal test for beet armyworm, treated diet surface. The format is in vivo. As to conditions: 100 μg/cm^2 on diet surface, first instar larvae, 32 insects per treatment, observations 24, 48 and 96 hours. The procedure:
The compounds identified in Table 8 were prepared according to the previous methods and were tested against beet armyworm and corn earworm as follows:
Insecticidal Test for Beet Armyworm (Spodoptera exigua).
To prepare the test solution, the test compound was Formulated at 3499 ppm in solution as 5 mg compound/1.429 mL of 9 parts acetone: 1 part deionized H2O and vortexed to homogenize. 50 μL of the 3499 ppm (equivalent to 100 μg/cm^2 dose on diet surface area) test solution was pipetted upon the surface of 1 mL of solidified cool Southland Products Incorporated Beet Armyworm Diet (201 Stuart Island Road Lake Village, Ark. 71653) using an Eppendorf Repeater Plus with a 1 mL pipette tip. All pipetting of treatments was done in a Labconco Hood. Thirty minutes were allowed for the acetone to evaporate leaving a dose of 100 μg/cm^2 on the surface of the artificial diet. Two 24 hour old first instar Beet Armyworm (Spodoptera Exigua) larvae were placed in each well of the 128 well Bio-BA 128 Bioassay trays (CD International, Pitman, N.J., 08071, USA) using a #0 fine camel hair paint brush. Bioassay trays were sectioned into treatment groups of 8 with 16 replicates per treatment group (32 insects per treatment). Trays containing the treated diet and larvae were covered with a Bio-CV-16 cover (CD International, Pitman, N.J., 08071, USA) and then placed on a rack under florescent lights at 27° C., 20% relative humidity (RH) in the room, and 16 hr light: 8 hr dark for 96 hours. Observations were made 24, 48 and 96 hours after treatment and infestation. The number of insects dead were counted out of the 32 insects total per treatment and the results are given in a table as a percent mortality at a dose of 100 μg/cm^2. When finished, the tray was moved to the −5° C. freezer and left for 24 hr to insure mortality of the remaining S. exigua. After 24 hours, dispose of entire tray into waste bin.
Keys to the table: Mortality refers to activity against beet army worm (Spodoptera exigua) as defined above at the concentration of 100 μg/cm^2 (A=76-100% mortality, B=51-75% mortality, C=26-50% mortality and D=0-25% mortality).
Consider `Fc1cccc(Cl)c1-c1nc(NN=Cc2ccc(C(F)(F)F)cc2)nc(Nc2ccc(Cl)nc2)n1` [Example 51, 4-(2-chloro-6-fluorophenyl)-N-(6-chloropyridin-3-yl)-6-(2-(4-(trifluoromethyl)benzylidene)hydrazinyl)-1,3,5-triazin-2-amine], for which the mortality at 100 µg/cm2 lay in the range of 76 to 100%.

For the molecule `FC(F)(F)Oc1ccc(C=NNc2cc(Nc3ccc(Cl)cc3)nc(-c3ccccc3)n2)cc1` [Example 46, N-(4-chlorophenyl)-2-phenyl-6-(2-(4-(trifluoromethoxy)benzylidene)hydrazinyl)pyrimidin-4-amine], the mortality at 100 µg/cm2 lay within 76 to 100%.

`Fc1ccccc1-c1nc(NN=Cc2ccc(OC(F)(F)F)cc2)nc(Nc2ccc(Cl)cc2)n1` [Example 44, N-(4-chlorophenyl)-4-(2-fluorophenyl)-6-(2-(4-(trifluoromethoxy)benzylidene)hydrazinyl)-1,3,5-triazin-2-amine]: the mortality at 100 µg/cm2 is 76 to 100%.

Take `Fc1cccc(Cl)c1-c1nc(NCc2ccc(Cl)nc2)nc(NN=Cc2ccc(OC(F)(F)F)cc2)n1` [Example 22, 4-(2-chloro-6-fluorophenyl)-N-((6-chloropyridin-3-yl)methyl)-6-(2-(4-(trifluoromethoxy)benzylidene)hydrazinyl)-1,3,5-triazin-2-amine]: the mortality at 100 µg/cm2 lay within 76 to 100%.

For the molecule `FC(F)(F)Oc1ccc(C=NNc2nc(Nc3ccc(Cl)cn3)cc(-c3ccccc3)n2)cc1` [Example 49, N-(5-chloropyridin-2-yl)-6-phenyl-2-(2-(4-(trifluoromethoxy)benzylidene)hydrazinyl)pyrimidin-4-amine], the mortality at 100 µg/cm2 lay within 0 to 25%.

With `Fc1cccc(F)c1-c1nc(NN=Cc2ccc(OC(F)(F)F)cc2)nc(Nc2ccc(Cl)nc2)n1` [Example 9, N-(6-chloropyridin-3-yl)-4-(2,6-difluorophenyl)-6-(2-(4-(trifluoromethoxy)benzylidene)hydrazinyl)-1,3,5-triazin-2-amine], the mortality at 100 µg/cm2 lay in the range of 76 to 100%.

Take `COc1cccc(-c2nc(NN=Cc3ccc(OC(F)(F)F)cc3)nc(Nc3ccc(Cl)cc3)n2)c1` [Example 29, N-(4-chlorophenyl)-4-(3-methoxyphenyl)-6-(2-(4-(trifluoromethoxy)benzylidene)hydrazinyl)-1,3,5-triazin-2-amine]: the mortality at 100 µg/cm2 is 0 to 25%.

As for `Fc1cccc(Cl)c1-c1cc(Nc2ccc(Cl)cc2)nc(NN=Cc2ccc(OC(F)(F)F)cc2)n1` [Example 52, 6-(2-chloro-6-fluorophenyl)-N-(4-chlorophenyl)-2-(2-(4-(trifluoromethoxy)benzylidene)hydrazinyl)pyrimidin-4-amine], the mortality at 100 µg/cm2 fell in the range of 76 to 100%.

`FC(F)(F)Oc1ccc(C=NNc2nc(NCc3ccc(Cl)nc3)cc(-c3ccccc3)n2)cc1` [Example 56, N-((6-chloropyridin-3-yl)methyl)-6-phenyl-2-(2-(4-(trifluoromethoxy)benzylidene)hydrazinyl)pyrimidin-4-amine] came in with a mortality at 100 µg/cm2 of 76 to 100%.

Molecule `CC(=NNc1nc(Nc2ccc(Cl)cc2)nc(-c2c(F)cccc2Cl)n1)c1ccc(OC(F)(F)F)cc1` [Example 21, 4-(2-chloro-6-fluorophenyl)-N-(4-chlorophenyl)-6-(2-(1-(4-(trifluoromethoxy)phenyl)ethylidene)hydrazinyl)-1,3,5-triazin-2-amine] displayed a mortality at 100 µg/cm2 of 76 to 100%.

Turning to `COc1ccc(-c2nc(NN=Cc3ccc(OC(F)(F)F)cc3)nc(Nc3ccc(Cl)cc3)n2)cc1` [Example 30, N-(4-chlorophenyl)-4-(4-methoxyphenyl)-6-(2-(4-(trifluoromethoxy)benzylidene)hydrazinyl)-1,3,5-triazin-2-amine], the mortality at 100 µg/cm2 is 0 to 25%.

`Fc1cccc(Cl)c1-c1nc(NN=Cc2ccc(OC(F)(F)F)cc2)nc(Nc2ccc(Cl)cc2)n1` [Example 4]: the mortality at 100 µg/cm2 was 76 to 100%.

The molecule `CCCC=NNc1nc(Nc2ccc(Cl)cc2)nc(-c2c(F)cccc2Cl)n1` [Example 19, 4-(2-butylidenehydrazinyl)-6-(2-chloro-6-fluorophenyl)-N-(4-chlorophenyl)-1,3,5-triazin-2-amine] gave a mortality at 100 µg/cm2 of 76 to 100%.

As to `Fc1ccc(Nc2nc(NN=Cc3ccc(OC(F)(F)F)cc3)nc(-c3c(F)cccc3Cl)n2)cc1Cl` [Example 34, N-(3-chloro-4-fluorophenyl)-4-(2-chloro-6-fluorophenyl)-6-(2-(4-(trifluoromethoxy)benzylidene)hydrazinyl)-1,3,5-triazin-2-amine], the mortality at 100 µg/cm2 lay within 76 to 100%.

In turn, `Fc1cccc(Cl)c1-c1nc(NCCN2CCOCC2)nc(NN=Cc2ccc(OC(F)(F)F)cc2)n1` [Example 24, 4-(2-chloro-6-fluorophenyl)-N-(2-morpholinoethyl)-6-(2-(4-(trifluoromethoxy)benzylidene)hydrazinyl)-1,3,5-triazin-2-amine] came in with a mortality at 100 µg/cm2 of 76 to 100%.

The molecule `COc1ccc(C=NNc2nc(Nc3ccc(Cl)nc3)nc(-c3c(F)cccc3Cl)n2)cc1` [Example 54, 4-(2-chloro-6-fluorophenyl)-N-(6-chloropyridin-3-yl)-6-(2-(4-methoxybenzylidene)hydrazinyl)-1,3,5-triazin-2-amine] registered a mortality at 100 µg/cm2 of 76 to 100%.

In turn, `Fc1cccc(Cl)c1-c1nc(NN=Cc2ccc(OC(F)(F)C(F)F)cc2)nc(Nc2ccc(Cl)nc2)n1` [Example 12, 4-(2-chloro-6-fluorophenyl)-N-(6-chloropyridin-3-yl)-6-(2-(4-(1,1,2,2-tetrafluoroethoxy)benzylidene)hydrazinyl)-1,3,5-triazin-2-amine] returned a mortality at 100 µg/cm2 of 76 to 100%.

In turn, `Fc1ccc(Nc2nc(NN=Cc3ccc(OC(F)(F)F)cc3)nc(-c3c(F)cccc3Cl)n2)cc1C(F)(F)F` [Example 35, 4-(2-chloro-6-fluorophenyl)-N-(4-fluoro-3-(trifluoromethyl)phenyl)-6-(2-(4-(trifluoromethoxy)benzylidene)hydrazinyl)-1,3,5-triazin-2-amine] showed a mortality at 100 µg/cm2 of 76 to 100%.

In turn, `Fc1cccc(Cl)c1-c1cc(Nc2ccc(Cl)nc2)nc(NN=Cc2ccc(OC(F)(F)F)cc2)n1` [Example 59, 6-(2-chloro-6-fluorophenyl)-N-(6-chloropyridin-3-yl)-2-(2-(4-(trifluoromethoxy)benzylidene)hydrazinyl)pyrimidin-4-amine] displayed a mortality at 100 µg/cm2 of 76 to 100%.

With `NCCNc1nc(NN=Cc2ccc(OC(F)(F)F)cc2)nc(-c2c(F)cccc2Cl)n1` [Example 28, N1-(4-(2-chloro-6-fluorophenyl)-6-(2-(4-(trifluoromethoxy)benzylidene)hydrazinyl)-1,3,5-triazin-2-yl)ethane-1,2-diamine], the mortality at 100 µg/cm2 is 0 to 25%.

`Fc1cccc(Cl)c1-c1nc(NN=Cc2ccc(OC(F)(F)F)cc2)nc(Nc2ccc(Cl)nc2)n1` [Example 13, 4-(2-chloro-6-fluorophenyl)-N-(6-chloropyridin-3-yl)-6-(2-(4-(trifluoromethoxy)benzylidene)hydrazinyl)-1,3,5-triazin-2-amine]: the mortality at 100 µg/cm2 fell in the range of 76 to 100%.

Take `Fc1cccc(F)c1-c1nc(NN=Cc2ccc(OC(F)(F)F)cc2)nc(Nc2ccc(OC(F)(F)F)cc2)n1` [Example 6, 4-(2,6-difluorophenyl)-6-(2-(4-(trifluoromethoxy)benzylidene)hydrazinyl)-N-(4-(trifluoromethoxy)phenyl)-1,3,5-triazin-2-amine]: the mortality at 100 µg/cm2 fell in the range of 26 to 50%.

As to `Fc1cccc(Cl)c1-c1nc(NN=Cc2ccc(OC(F)(F)C(F)Cl)cc2)nc(Nc2ccc(Cl)nc2)n1` (centres unmarked) [Example 36, 4-(2-(4-(2-chloro-1,1,2-trifluoroethoxy)benzylidene)hydrazinyl)-6-(2-chloro-6-fluorophenyl)-N-(6-chloropyridin-3-yl)-1,3,5-triazin-2-amine], the mortality at 100 µg/cm2 is 76 to 100%.

Molecule `Fc1cccc(F)c1-c1nc(NN=Cc2ccc(OC(F)(F)C(F)F)cc2)nc(Nc2ccc(Cl)nc2)n1` [Example 15, N-(6-chloropyridin-3-yl)-4-(2,6-difluorophenyl)-6-(2-(4-(1,1,2,2-tetrafluoroethoxy)benzylidene)hydrazinyl)-1,3,5-triazin-2-amine] gave a mortality at 100 µg/cm2 of 76 to 100%.

Turning to `FC(F)(F)Oc1ccc(C=NNc2nc(Nc3ccc(Cl)cc3)cc(-c3ccccc3)n2)cc1` [Example 57, N-(4-chlorophenyl)-6-phenyl-2-(2-(4-(trifluoromethoxy)benzylidene)hydrazinyl)pyrimidin-4-amine], the mortality at 100 µg/cm2 was in the range of 76 to 100%.

Consider `Fc1cccc(Cl)c1-c1nc(NN=Cc2ccc(OC(F)(F)C(F)Cl)cc2)nc(Nc2ccc(Cl)cc2)n1` (centres unmarked) [Example 37, 4-(2-(4-(2-chloro-1,1,2-trifluoroethoxy)benzylidene)hydrazinyl)-6-(2-chloro-6-fluorophenyl)-N-(4-chlorophenyl)-1,3,5-triazin-2-amine], for which the mortality at 100 µg/cm2 was 76 to 100%.
